Reference: ChEMBL document CHEMBL3091370, “3,5-bis(benzylidene)-4-piperidones and related N-acyl analogs: a novel cluster of antimalarials targeting the liver stage of Plasmodium falciparum” (Bioorg Med Chem, 2013)
Converted amounts (≈) assume the structure as drawn.

Columns and labels:
Plasmodium falciparum [1] = assay: Antimalarial activity against drug-resistant Plasmodium falciparum C235 after 72 hrs by SYBR green I staining-based fluorescence assay; format: functional, organism-based; conditions: C235, 72 h
Plasmodium falciparum [2] = assay: Antimalarial activity against drug-sensitive Plasmodium falciparum D6 after 72 hrs by SYBR green I staining-based fluorescence assay; format: functional, organism-based; conditions: D6, 72 h
Plasmodium falciparum [3] = assay: Ratio of IC50 for drug-resistant Plasmodium falciparum C235 to IC50 for drug-sensitive Plasmodium falciparum D6; format: functional
Plasmodium berghei [4] = assay: Antimalarial activity against liver stage Plasmodium berghei ANKA sporozoites infected in human HepG2 cells after 48 hrs by luciferase reporter gene assay; format: functional, organism-based; conditions: HepG2, 48 h
HepG2 = assay: Cytotoxicity against human HepG2 cells after 48 hrs by MTT assay; format: cell-based; conditions: HepG2, 48 h
[5] = Half life in human plasma at 1 mM by LC/MS analysis; format: ADME, cell-free
[6] = Apparent permeability from basolateral to apical side in MDCK cells at 10 uM after 1 hr by LC/MS analysis; format: ADME, cell-based, Canis lupus familiaris; conditions: dog
[7] = Apparent permeability from apical to basolateral side in MDCK cells at 10 uM after 1 hr by LC/MS analysis; format: ADME, cell-based, Canis lupus familiaris; conditions: dog
[8] = Half life in mouse plasma at 1 mM by LC/MS analysis; format: ADME, cell-free
[9] = Efflux ratio of apparent permeability from basolateral to apical side to apical to basolateral side in MDCK cells; format: ADME, cell-based, Canis lupus familiaris; conditions: dog
Plasmodium berghei [10] = assay: Ratio of mefloquine IC50 to compound IC50 for liver stage Plasmodium berghei ANKA sporozoites infected in human HepG2 cells; format: functional
Plasmodium berghei [11] = assay: Ratio of chloroquine IC50 to compound IC50 for liver stage Plasmodium berghei ANKA sporozoites infected in human HepG2 cells; format: functional

Compound: Cl.O=C1/C(=C/c2ccccc2)CN(C(=O)c2ccc(OCCN3CCOCC3)cc2)C/C1=C\c1ccccc1
- IC50 (Plasmodium falciparum [1]): > 2 µg/mL
- IC50 (Plasmodium falciparum [2]): 1.42 µg/mL
- Ratio IC50 (Plasmodium falciparum [3]): >1.41

Compound: Cl.O=C1/C(=C/c2ccc(Cl)cc2)CN(C(=O)c2ccc(OCCN3CCCCC3)cc2)C/C1=C\c1ccc(Cl)cc1
- IC50 (Plasmodium falciparum [1]): > 2 µg/mL
- IC50 (Plasmodium falciparum [2]): > 2 µg/mL
- Ratio IC50 (Plasmodium falciparum [3]): >1.06

Compound: CCN(CC)CCOc1ccc(C(=O)N2C/C(=C\c3ccc(Cl)cc3)C(=O)/C(=C/c3ccc(Cl)cc3)C2)cc1.Cl
- IC50 (Plasmodium falciparum [1]): > 2 µg/mL
- IC50 (Plasmodium falciparum [2]): > 2 µg/mL

Compound: CN(C)CCOc1ccc(C(=O)N2C/C(=C\c3ccccc3)C(=O)/C(=C/c3ccccc3)C2)cc1.Cl
- IC50 (Plasmodium falciparum [1]): > 2 µg/mL
- IC50 (Plasmodium falciparum [2]): 1.75 µg/mL
- Ratio IC50 (Plasmodium falciparum [3]): >1.14

Compound: Cl.O=C1/C(=C/c2ccc([N+](=O)[O-])cc2)CN(C(=O)c2ccc(OCCN3CCCCC3)cc2)C/C1=C\c1ccc([N+](=O)[O-])cc1
- IC50 (Plasmodium falciparum [1]): 0.288 µg/mL
- IC50 (Plasmodium berghei [4]): 0.165 µg/mL
- IC50 (Plasmodium falciparum [2]): 0.25 µg/mL
- IC50 (HepG2): > 2 µg/mL
- Ratio IC50 (Plasmodium falciparum [3]): 1.15

Compound: Cl.O=C1/C(=C/c2ccccc2)CN(C(=O)c2ccc(OCCN3CCCCC3)cc2)C/C1=C\c1ccccc1
- IC50 (Plasmodium falciparum [1]): 0.74 µg/mL
- IC50 (Plasmodium falciparum [2]): 0.794 µg/mL
- Ratio IC50 (Plasmodium falciparum [3]): 0.93

Compound: Cc1ccc(/C=C2\CN(C(=O)c3ccc(OCCN4CCOCC4)cc3)C/C(=C\c3ccc(C)cc3)C2=O)cc1.Cl
- IC50 (Plasmodium falciparum [1]): > 2 µg/mL
- IC50 (Plasmodium falciparum [2]): 0.846 µg/mL
- Ratio IC50 (Plasmodium falciparum [3]): >2.36

Compound: Cl.O=C1/C(=C/c2ccc([N+](=O)[O-])cc2)CN(C(=O)c2ccc(OCCN3CCOCC3)cc2)C/C1=C\c1ccc([N+](=O)[O-])cc1
- IC50 (Plasmodium falciparum [1]): 0.53 µg/mL
- IC50 (Plasmodium berghei [4]): 0.357 µg/mL
- IC50 (Plasmodium falciparum [2]): 0.433 µg/mL
- IC50 (HepG2): > 2 µg/mL
- Ratio IC50 (Plasmodium falciparum [3]): 1.22

Compound: CN(C)CCOc1ccc(C(=O)N2C/C(=C\c3ccc(Cl)cc3)C(=O)/C(=C/c3ccc(Cl)cc3)C2)cc1.Cl
- IC50 (Plasmodium falciparum [1]): 0.565 µg/mL
- IC50 (Plasmodium falciparum [2]): 0.497 µg/mL
- Ratio IC50 (Plasmodium falciparum [3]): 1.14

Compound: CCN(CC)CCCC(C)Nc1ccnc2cc(Cl)ccc12.O=P(O)(O)O.O=P(O)(O)O (stereo not drawn) [CHLOROQUINE PHOSPHATE]
- IC50 (Plasmodium berghei [4]): > 2 µg/mL
- IC50 (HepG2): > 2 µg/mL

Compound: CCN(CC)CCCC(C)Nc1ccnc2cc(Cl)ccc12 (stereo not drawn) [CHLOROQUINE]
- half-life [5]: > 60 min
- Papp B→A at 1 h, 10 µM [6]: 14 ×10⁻⁶ cm/s
- Papp A→B at 1 h, 10 µM [7]: 13 ×10⁻⁶ cm/s
- half-life [8]: > 60 min

Compound: Cc1ccc(/C=C2\CNC/C(=C\c3ccc(C)cc3)C2=O)cc1
- IC50 (Plasmodium falciparum [1]): 0.285 µg/mL (≈ 0.939 µM)
- IC50 (Plasmodium berghei [4]): 0.159 µg/mL (≈ 0.524 µM)
- half-life [5]: 17.2 min
- IC50 (Plasmodium falciparum [2]): 0.249 µg/mL (≈ 0.821 µM)
- half-life [8]: 14.6 min
- IC50 (HepG2): > 2 µg/mL
- Ratio IC50 (Plasmodium falciparum [3]): 1.15

Compound: O[C@@H](c1cc(C(F)(F)F)nc2c(C(F)(F)F)cccc12)[C@H]1CCCCN1 (relative stereo) [(S,R)-MEFLOQUINE]
- IC50 (Plasmodium falciparum [1]): 0.0167 µg/mL (≈ 0.0441 µM)
- IC50 (Plasmodium berghei [4]): > 2 µg/mL
- half-life [5]: > 60 min
- IC50 (Plasmodium falciparum [2]): 0.0066 µg/mL (≈ 0.0174 µM)
- Papp B→A at 1 h, 10 µM [6]: 3.7 ×10⁻⁶ cm/s
- Papp A→B at 1 h, 10 µM [7]: 0.6 ×10⁻⁶ cm/s
- half-life [8]: > 60 min
- IC50 (HepG2): > 2 µg/mL
- efflux ratio [9]: 6.17
- Ratio IC50 (Plasmodium falciparum [3]): 2

Compound: Cc1ccc(/C=C2\CN(C(=O)c3ccc(OCCN4CCCCC4)cc3)C/C(=C\c3ccc(C)cc3)C2=O)cc1.Cl
- IC50 (Plasmodium falciparum [1]): 0.713 µg/mL
- IC50 (Plasmodium falciparum [2]): 0.682 µg/mL
- Ratio IC50 (Plasmodium falciparum [3]): 1.05

Compound: CN(C)CCOc1ccc(C(=O)N2C/C(=C\c3ccc([N+](=O)[O-])cc3)C(=O)/C(=C/c3ccc([N+](=O)[O-])cc3)C2)cc1.Cl
- IC50 (Plasmodium falciparum [1]): 0.372 µg/mL
- IC50 (Plasmodium berghei [4]): 0.31 µg/mL
- IC50 (Plasmodium falciparum [2]): 0.424 µg/mL
- IC50 (HepG2): > 2 µg/mL
- Ratio IC50 (Plasmodium falciparum [3]): 0.88

Compound: O=C1/C(=C/c2ccc([N+](=O)[O-])cc2)CNC/C1=C\c1ccc([N+](=O)[O-])cc1
- IC50 (Plasmodium falciparum [1]): 0.0412 µg/mL (≈ 0.113 µM)
- IC50 (Plasmodium berghei [4]): 0.356 µg/mL (≈ 0.974 µM)
- half-life [5]: > 60 min
- IC50 (Plasmodium falciparum [2]): 0.0375 µg/mL (≈ 0.103 µM)
- Papp A→B at 1 h, 10 µM [7]: 0.28 ×10⁻⁶ cm/s
- half-life [8]: 22.5 min
- IC50 (HepG2): > 2 µg/mL
- efflux ratio [9]: 0.01
- Ratio IC50 (Plasmodium falciparum [3]): 1.1

Compound: Cc1ccc(/C=C2\CN(C(=O)c3ccc(OCCN(C)C)cc3)C/C(=C\c3ccc(C)cc3)C2=O)cc1.Cl
- IC50 (Plasmodium falciparum [1]): > 2 µg/mL
- IC50 (Plasmodium berghei [4]): > 2 µg/mL
- IC50 (Plasmodium falciparum [2]): > 2 µg/mL
- IC50 (HepG2): > 2 µg/mL

Compound: O=C1/C(=C/c2ccccc2)CNC/C1=C\c1ccccc1
- IC50 (Plasmodium falciparum [1]): 0.162 µg/mL (≈ 0.588 µM)
- IC50 (Plasmodium berghei [4]): 0.0935 µg/mL (≈ 0.34 µM)
- half-life [5]: 11.8 min
- IC50 (Plasmodium falciparum [2]): 0.139 µg/mL (≈ 0.505 µM)
- Papp B→A at 1 h, 10 µM [6]: 0.1 ×10⁻⁶ cm/s
- Papp A→B at 1 h, 10 µM [7]: 5.74 ×10⁻⁶ cm/s
- Ratio IC50 (Plasmodium berghei [10]): >21
- half-life [8]: 19.5 min
- IC50 (HepG2): > 2 µg/mL
- efflux ratio [9]: 0.02
- Ratio IC50 (Plasmodium berghei [11]): >21
- Ratio IC50 (Plasmodium falciparum [3]): 1.17

Compound: O=C1/C(=C/c2ccc(Cl)cc2)CNC/C1=C\c1ccc(Cl)cc1
- IC50 (Plasmodium falciparum [1]): 0.128 µg/mL (≈ 0.372 µM)
- IC50 (Plasmodium berghei [4]): 0.597 µg/mL (≈ 1.73 µM)
- half-life [5]: > 60 min
- IC50 (Plasmodium falciparum [2]): 0.103 µg/mL (≈ 0.299 µM)
- half-life [8]: > 60 min
- IC50 (HepG2): > 2 µg/mL
- Ratio IC50 (Plasmodium falciparum [3]): 1.24

Compound: CCN(CC)CCOc1ccc(C(=O)N2C/C(=C\c3ccccc3)C(=O)/C(=C/c3ccccc3)C2)cc1.Cl
- IC50 (Plasmodium falciparum [1]): 0.311 µg/mL
- IC50 (Plasmodium berghei [4]): 0.383 µg/mL
- IC50 (Plasmodium falciparum [2]): 0.412 µg/mL
- IC50 (HepG2): > 2 µg/mL
- Ratio IC50 (Plasmodium falciparum [3]): 0.76

Compound: CCN(CC)CCOc1ccc(C(=O)N2C/C(=C\c3ccc(C)cc3)C(=O)/C(=C/c3ccc(C)cc3)C2)cc1.Cl
- IC50 (Plasmodium falciparum [1]): 0.555 µg/mL
- IC50 (Plasmodium berghei [4]): 0.483 µg/mL
- IC50 (Plasmodium falciparum [2]): 0.536 µg/mL
- IC50 (HepG2): > 2 µg/mL
- Ratio IC50 (Plasmodium falciparum [3]): 1.03

Compound: CCN(CC)CCOc1ccc(C(=O)N2C/C(=C\c3ccc([N+](=O)[O-])cc3)C(=O)/C(=C/c3ccc([N+](=O)[O-])cc3)C2)cc1.Cl
- IC50 (Plasmodium falciparum [1]): 0.146 µg/mL
- IC50 (Plasmodium berghei [4]): 0.186 µg/mL
- IC50 (Plasmodium falciparum [2]): 0.202 µg/mL
- IC50 (HepG2): > 2 µg/mL
- Ratio IC50 (Plasmodium falciparum [3]): 0.72
